What all share (assay type): in vivo, mild to moderate AD patients
The test system of one experiment is Aβ-40. Kind of experiment: Phase II placebo-controlled trial, cerebrospinal fluid biomarker Aβ-40. The settings on record: for Change in Aβ-40 in CSF at week 52, difference from placebo group: analysis of covariance. An excerpt:
[The procedure below names another target; the source lists this target under the same test.] (§1) Maleate of Compound A was used as the test compound. • Test Example 1 Multicenter randomized double-blind phase II placebo-controlled trial for assessing effectiveness and safety of Compound A in mild to moderate AD patients Subject (selection criteria): Patients were screened in a period from 42 days before treatment assignment to the assignment based on the following selection criteria. • Patients who were probable AD and are 55 years old or older and 85 years old or younger at the time of obtaining consent of screening. • Patients with an MMSE score of 12 to 22 at the time of screening • Patients with a Modified Hachinski Ischemia Scale score of 4 or less • Patients who have been treated with a donepezil hydrochloride or rivastigmine transdermal system for at least 4 months before the baseline and with a stable dose thereof for 3 months before the baseline. • In the case of patients who have received memantine in addition to being treated with a donepezil hydrochloride or rivastigmine transdermal system, patients who have been treated with memantine for at least 4 months before the baseline and with a stable dose thereof for 3 months before the baseline. • Patients whose brain MRI or CT results match AD at the time of screening • Organization of groups: Patients matched (484 patients) were randomly divided into the following 3 groups and the trial was started. • (1) High dose group: 224 mg of a test compound (160 mg in terms of Compound A) was orally administered once a day for 4 weeks and then 448 mg of a test compound (320 mg in terms of Compound A) was orally administered once a day for 48 weeks (158 patients) • (2) Low dose group: 224 mg of a test compound (160 mg in terms of Compound A) was orally administered once a day for 52 weeks (166 patients) • (3) Placebo group: placebo was orally administered once a day for 52 weeks (158 patients) Method of assessment: Cerebrospinal Fluid Biomarker
(§2) Cerebrospinal fluid was collected by lumber puncture from subjects at baseline (within 2 weeks before the first day of administration of investigational drug) and after 52 weeks (within 2 weeks before week 52), and divided into 9-ml aliquots in polyethylene tubes and stored at −80° C. The AP-42 value in the cerebrospinal fluid was measured by sandwich ELIZA which has been designed for measurement of Aβ including 1 amino acid and 42 amino acids.
(§3) Change in cerebrospinal fluid (CSF) biomarkers at week 52 from the baseline was compared by analysis of covariance between a high dose group and a placebo group, and between a low dose group and the placebo group. For models, the baseline of cerebrospinal fluid (CSF) biomarkers was included as a covariate and the significance level was 5%.

The next experiment concerns Aβ-42. Kind of experiment: Phase II placebo-controlled trial, cerebrospinal fluid biomarker Aβ-42. Conditions: for Change in Aβ-42 in CSF at week 52, difference from placebo group: analysis of covariance.
From the text: as §1, §2, §3

The subject of the next experiment is Aβ-38. Kind of experiment: Phase II placebo-controlled trial, cerebrospinal fluid biomarker Aβ-38. The settings on record: for Change in Aβ-38 in CSF at week 52, difference from placebo group: analysis of covariance.
From the text: [The procedure below names another target; the source lists this target under the same test.] as §1, §2, §3

For another experiment, the system named is Aβ. Kind of experiment: Phase II placebo-controlled trial, concentration of Aβ in the cerebrospinal fluid (overall statement). The settings on record: Compound A groups (high and low dose) vs placebo group. Here is the method:
[…]
Cerebrospinal fluid was collected by lumber puncture from subjects at baseline (within 2 weeks before the first day of administration of investigational drug) and after 52 weeks (within 2 weeks before week 52), and divided into 9-ml aliquots in polyethylene tubes and stored at −80° C. The AP-42 value in the cerebrospinal fluid was measured by sandwich ELIZA which has been designed for measurement of Aβ including 1 amino acid and 42 amino acids. […]

[1] abbreviates: High dose group (160 mg then 320 mg in terms of Compound A, oral, once a day).
[2] abbreviates: High dose group: 160 mg in terms of Compound A orally once a day for 4 weeks, then 320 mg for 48 weeks, 24 cases.
Where [3] appears, read: Low dose group (160 mg in terms of Compound A, oral, once a day, 52 weeks).
The mark [4] stands for this setting: Low dose group: 160 mg in terms of Compound A orally once a day for 52 weeks, 17 cases.

As to `OC1CN(CCCOCCc2ccc3sccc3c2)C1` [Compound A, 1-(3-(2-(1-benzothiophen-5-yl)ethoxy)propyl)azetidin-3-ol], the “Change in Aβ-40 in CSF at week 52, difference from placebo group” value with Aβ-40 (setting [1]) came to 1206.87 pg/mL; in the experiment on Aβ-40 (setting [3]) it was 75.71 pg/mL. Also, the “Change in concentration of Aβ-40 in CSF at week 52 from the baseline, least square means” value was 290.84 pg/mL in the experiment with Aβ-40 (setting [2]) and -840.32 pg/mL with Aβ-40 (setting [4]). The “Change in Aβ-42 in CSF at week 52, difference from placebo group” value was 32.90 pg/mL in the experiment on Aβ-42 (setting [1]) and 11.65 pg/mL in the experiment on Aβ-42 (setting [3]). In addition, the “Change in concentration of Aβ-42 in CSF at week 52 from the baseline, least square means” value in the experiment on Aβ-42 (setting [2]) is 11.55 pg/mL; in the experiment on Aβ-42 (setting [4]), -9.70 pg/mL. For the same compound, the “Change in Aβ-38 in CSF at week 52, difference from placebo group” value in the experiment with Aβ-38 (setting [1]) worked out at 525.66 pg/mL; in the experiment on Aβ-38 (setting [3]) it was 127.43 pg/mL. Further, the “Change in concentration of Aβ-38 in CSF at week 52 from the baseline, least square means” value is 178.64 pg/mL in the experiment with Aβ-38 (setting [2]) and -219.58 pg/mL in the experiment on Aβ-38 (setting [4]). Besides, the “Change in the concentration of Aβ in the cerebrospinal fluid at week 52 from the baseline, compared to the placebo group” value with Aβ is recorded as “tended to be increased in a dose dependent manner”.

Values taken from patent publication US11666551B2, “Agent for reducing amount of amyloid β protein” (FUJIFILM Toyama Chemical Co., Ltd., priority 2017, dated 2023).
